Laboratory results: US8809542B2, “Salts of benzimidazole compound and use thereof” (Takeda Pharmaceutical Company Limited, priority 2000, dated 2014)

Assay: Storage stability of the crystal in a hermetically sealed glass bottle, content (residual percentage) by HPLC
Assay type: physicochemical
Details: for description: appearance
Experimental: The crystal of a sodium salt obtained in Example 1 (about 5 mg) was served into a colorless glass bottle, the bottle was hermetically sealed by a stopper, and stability of the crystal during storage at 60° C. for 4 weeks was examined. 25 ml of a sample (concentration: about 0.2 mg/ml) was prepared by dissolving the sample after completion of storage in a mobile phase. The sample solution along with a standard solution prepared by using the initial lot (a frozen sample stored for the same term), was analyzed under the HPLC conditions shown below, and the content (residual percentage) was calculated from the peak area obtained.
[HPLC Analytical Conditions]
Detection wavelength: UV 275 nm
Mobile phase: Fluid prepared by adding phosphoric acid to water/acetonitrile/triethylamine (63:37:1) to adjust pH 7
Column temperature: 40° C.
Sample injection volume: 10 μL

Cc1c(OCC(F)(F)F)ccnc1C[S@@+]([O-])c1nc2ccccc2[n-]1.[Na+] [Example 1, sodium salt of (R)-2-[[[3-methyl-4-(2,2,2-trifluoroethoxy)-2-pyridinyl]methyl]sulfinyl]-1H-benzimidazole]
content (residual percentage) (freeze-storage for the same term (initial lot used as standard)): [100] %
description (freeze-storage): nearly white
content (residual percentage) (solid crystal stored at 60° C. (airtight) for 4 weeks, HPLC peak area vs frozen initial lot, listed as crystal of Ex. 1): 99.2%
content (residual percentage) (solid crystal stored at 60° C. (airtight) for 4 weeks, HPLC peak area vs frozen initial lot, listed as crystal of a sodium salt of R(+)-lansoprazole): exceeding 99%
description (solid crystal stored at 60° C. (airtight) for 4 weeks): nearly white
